Test results reported in patent US20180280435A1, “T CELL DELIVERY OF MDA-7/IL-24 TO IMPROVE THERAPEUTIC ERADICATION OF CANCER AND GENERATE PROTECTIVE ANTITUMOR IMMUNITY” (VIRGINIA COMMONWEALTH UNIVERSITY, priority 2015, published 2018).

B1: MDA-7/IL-24 protein: Melanoma differentiation associated gene-7/Interleukin-24, secreted protein of the IL-10 family (protein)
chain: QEFHFGPCQVKGVVPQKLWEAFWAVKDTMQAQDNITSARLLQQEVLQNVSDAESCYLVHTLLEFYLKTVFKNYHNRTVEVRTLKSFSTLANNFVLIVSQLQPSQENEMFSIRDSAHRRFLLFRRAFKQLDVEAALTKALGEVDILLTWMQKFYKL

Key:
CD11b+Gr-1+MDSCs = assay: MDSC frequency after MCL-1 inhibitor in tumor-bearing mice (FACS); type: in vivo
Experimental: FIG. 6. Potential immune modulation by MCL-1 inhibition. MCL-1 inhibitor reduces MDSCs in tumor-bearing mice. Tumor-bearing mice received BI-97C1 (Sabutoclax) (5 mg/kg or 20 mg/kg) i.p. or left untreated. 24 h later, splenic CD11b+GR-1+MDSCs were assessed by FACS.
Reduction of MDSCs could be explained by the direct cytotoxic effect of BI-97C1 (Sabutoclax), due to its ability to abrogate Bcl-2 protein functions.

CD8+ T cells = assay: T cell proliferation, 3H-thymidine (TdR) incorporation after anti-CD3/CD28 stimulation; type: cell-based; details: 20 ng/ml protein
Experimental: (§1) A. CD8+ T cells were stimulated with anti-CD3/CD28 antibodies in the presence or absence of purified MDA-7/IL-24 protein (20 ng/ml). Cell proliferation was measured using 3H-thymidine (TdR) incorporation assays. P<0.05. B. C57BL/6 mice were injected i.v. with MDA-7/IL-24 protein (10 μg) or PBS. 48 h later, lymph node cells were assessed for IFN-γ-producing CD8+ T cells by intracellular staining.
(§2) The clinical application of immunotherapy is limited by the escape mechanisms cancer cells employ to avoid immune destruction due to immunoediting (e.g., selection of non-immunogenic or antigen loss cancer cell variants) and other immunosuppressive mechanisms at the tumor site. Since cancer-specific toxicity of MDA-7/IL-24 is antigen-independent, the delivery of a cancer-suicide agent in combination with T-cells may overcome the acquired tumor resistance to T-cell therapy. Intriguingly, MDA-7/IL-24 protein enhanced the proliferation of T cells upon TCR ligation (FIG. 8A). Treatment of mice with recombinant MDA-7/IL-24 protein increased the frequency of IFN-γ-expressing CD8+ T cells (FIG. 8B), supporting a role of MDA-7/IL-24 as a pro-Th 1 cytokine.

[1] = test system: IFN-γ-producing CD8+ T cells; assay: IFN-γ-producing CD8+ T cells in lymph nodes after i.v. protein (intracellular staining); type: in vivo, C57BL/6 mice; details: 10 μg i.v., 48 h later, lymph node cells
Experimental: as §1, §2

| Molecule | frequency of CD11b+Gr-1+MDSCs (CD11b+Gr-1+MDSCs; single administration i.p. (5 mg/kg or 20 mg/kg), splenic MDSCs 24 h later) | toxicity (CD11b+Gr-1+MDSCs; single administration in tumor-bearing mice) | proliferation of T cells upon TCR ligation (CD8+ T cells) | frequency of IFN-γ-expressing CD8+ T cells [1] |
| --- | --- | --- | --- | --- |
| Cc1cc2c(C(=O)NC[C@H](C)c3ccccc3)c(O)c(O)cc2c(O)c1-c1c(C)cc2c(C(=O)NC[C@H](C)c3ccccc3)c(O)c(O)cc2c1O [BI-97C1, Sabutoclax] | substantially reduced | without inducing toxicity | – | – |
| B1 | – | – | enhanced | increased |
